Experimental data published in publication PMC11531485, “Examining prestructured β-actin peptides as substrates of histidine methyltransferase SETD3” (Scientific Reports, 2024).
Positions of bridges follow the written chain, without caps; N, C: chain ends. Non-standard residues stand in square brackets, D forms with d. Residues, ends and D or L forms follow the SMILES beside them. No end group written: not given here. Orn = NCCC[C@H](N)C(=O)O

What was measured:
[1] = target: T1, human SETD3 (Homo sapiens, UniProt Q86TU7); assay: MALDI-TOF MS enzymatic substrate scope assay (SETD3-catalyzed methylation of βA peptides); type: biochemical; conditions: 1 µM SETD3, 10 µM βA peptide, 100 µM SAM, 25 mM Tris, 20 mM NaCl, pH 9.0, 37 °C; for SETD3-catalyzed methylation after 3 h: N = 2
T1 construct: His6 (N); made in house; host or cells: E. coli BL21(DE3)
T1 sequence (Q86TU7 1-594): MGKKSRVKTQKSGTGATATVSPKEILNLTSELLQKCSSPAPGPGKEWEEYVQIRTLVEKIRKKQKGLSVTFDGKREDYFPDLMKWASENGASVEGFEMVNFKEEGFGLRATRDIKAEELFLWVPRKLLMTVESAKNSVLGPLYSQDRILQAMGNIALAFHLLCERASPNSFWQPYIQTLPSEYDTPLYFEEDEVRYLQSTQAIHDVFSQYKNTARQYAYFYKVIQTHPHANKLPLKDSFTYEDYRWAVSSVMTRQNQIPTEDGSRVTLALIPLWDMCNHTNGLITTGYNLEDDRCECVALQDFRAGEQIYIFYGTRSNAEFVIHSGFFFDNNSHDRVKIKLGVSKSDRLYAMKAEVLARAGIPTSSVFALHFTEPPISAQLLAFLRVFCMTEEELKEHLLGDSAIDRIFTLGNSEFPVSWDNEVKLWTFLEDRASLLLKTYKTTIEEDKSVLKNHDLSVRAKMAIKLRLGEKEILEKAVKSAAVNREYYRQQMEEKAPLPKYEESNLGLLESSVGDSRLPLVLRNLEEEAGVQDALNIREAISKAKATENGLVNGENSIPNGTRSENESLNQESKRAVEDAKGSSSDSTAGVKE
Description: We examined conformationally restrained βA peptides and linear controls as substrates for the recombinantly expressed human SETD3 employing MALDI-TOF MS to detect a characteristic + 14 Da mass increase upon methylation. Enzymatic reactions were evaluated using standard conditions (1 µM SETD3, 10 µM βA, 100 µM SAM) in methylation buffer (25 mM Tris, 20 mM NaCl, pH = 9.0 at 37 °C)[21]. The enzymatic reaction was quenched with 10% TFA in MilliQ water (1:1 v/v) at 1 h and 3 h before mass spectrometric analysis (Figs . 4 and S3-S4). […] Finally, azide-alkyne Cu^I-mediated Huisgen 1,3-dipolar cycloaddition yields peptide 11 that was poorly (14%) methylated by SETD3 after 3 h under standard conditions (Figs. 4L and S4L). […] Taken together, these findings illustrate an overall preference of human SETD3 for flexible βA peptides, which facilitates βA-H73 insertion into the active site. Introduction of flexible macrocycles results in an overall reduced methylation by SETD3, while bulky or rigidifying moieties present within the macrocycles render the βA peptides non-reactive to methylation by SETD3.
Fig. 4 MALDI-TOF MS data showing SETD3-catalyzed (1 µM) methylation of βA peptides (10 µM) in the presence of SAM (100 µM) in reaction buffer (25 mM Tris, 20 mM NaCl, pH = 9.0) after 3 h at 37 °C. (A) βA, (B) 1, (C) 2, (D) 3, (E) 4, (F) 5, (G) 6, (H) 7, (I) 8, (J) 9, (K) 10, (L) 11. Control reactions in the absence of SETD3 are shown in black, whereas SETD3-catalyzed reactions are shown in red.
SETD3 substrate scope experiments towards βA peptides were performed by incubation of βA peptides (10 µM) in methylation buffer (25 mM Tris, 20 mM NaCl, pH = 9.0) in the presence of SAM (100 µM) and SETD3 (1 µM) in a final volume of 50 µL for 1 and 3 h at 37 °C while shaking at 750 rpm in an Eppendorf Thermomixer C. The reaction was quenched by addition of 10% TFA in MilliQ H2O (1:1). The reactions were aliquoted and mixed with α-cyano-4-hydroxycinnamic acid dissolved in MilliQ H2O and ACN (1:1, v/v) with 0.1% TFA. The aliquots were loaded onto a MTP 384 polished steel target for MALDI-TOF analysis using a UltrafleXtreme and conversion to methylated product was monitored.

[2] = target: T1, human SETD3; assay: MALDI-TOF MS methylation kinetics assay (Michaelis-Menten, steady state); type: biochemical; conditions: 200 nM SETD3, 3.125-150 µM peptide, 100 µM SAM, pH 9.0, 37 °C; for Km / kcat: 25 mM Tris, 20 mM NaCl, MALDI-TOF MS, duplicate, mean ± SE, SEM
Description: (§1) Catalytic efficiencies were explored for SETD3-catalyzed methylation of linear βA peptides 1, 6, 8 and 10 (Fig. 5; Table 1). Kinetic parameters were determined using MALDI-TOF MS assays under steady-state conditions by incubation with saturating amounts of SAM (100 µM)[23]. Addition of SETD3 (200 nM) to varying concentrations of linear βA peptides (0–150 µM) in reaction buffer initiated the reaction, upon which the mixture was incubated at 37 °C and quenched at timepoints that guarantee v0-reaction rates for SETD3-catalyzed methylation.
(§2) Fig. 5 Michaelis–Menten kinetics of linear βA peptides at varying concentrations (3.125-150 µM) by SETD3 (200 nM) in presence of saturating amounts of SAM (100 µM) in reaction buffer (25 mM Tris, 20 mM NaCl, pH = 9.0) at 37 °C.
(§3) Kinetics evaluation was carried out with a MALDI-TOF MS assay under steady state conditions. βA peptides (3.125–150 µM) and SAM (100 µM) were dissolved in methylation buffer (25 mM Tris, 20 mM NaCl, pH = 9.0), upon which the reaction was initiated by addition of SETD3. Reactions were incubated at 37 °C and shaken at 750 rpm Eppendorf Thermomixer C for 30 min, upon which the reactions were quenched by addition of 10% TFA in MilliQ water (1:1). Reactions were aliquoted and mixed with α-cyano-4-hydroxycinnamic acid dissolved in MilliQ H2O and ACN (1:1, v/v) with 0.1% TFA. The aliquots were loaded onto a MTP 384 polished steel target for MALDI-TOF analysis using a UltrafleXtreme. Methylated product was quantified by determining the combined integrals of the various ionic species of the methylated product. Kinetic parameters were subsequently determined by plotting V0 values and actin peptide concentrations and fitting them to the Michaelis–Menten equation using GraphPad Prism software. Experiments were performed in duplicate and values are reported as mean [drawing 1] standard error (SE) (Figs. S3-S4).

[3] = target: T2, human SETD3 histidine methyltransferase (human, UniProt Q86TU7 1-594)
T2 sequence (looked up): T1 sequence (Q86TU7 1-594)

[4] = target: human SETD3 histidine methyltransferase (human) (UniProt Q86TU7)
[5] = substrate: CC[C@H](C)[C@H](NC(=O)CNC(=O)[C@H](Cc1c[nH]cn1)NC(=O)[C@H](CCC(=O)O)NC(=O)[C@@H](NC(=O)[C@@H]1CCCN1C(=O)[C@H](Cc1ccc(O)cc1)NC(=O)[C@H](CCCCN)NC(=O)[C@H](CC(C)C)NC(=O)[C@@H](N)[C@@H](C)O)[C@@H](C)CC)C(=O)N[C@H](C(=O)N[C@H](C(=O)N[C@@H](CC(N)=O)C(=O)N[C@@H](Cc1c[nH]c2ccccc12)C(=O)N[C@@H](CC(=O)O)C(=O)N[C@@H](CC(=O)O)C(N)=O)[C@@H](C)O)C(C)C; assay: MALDI-TOF MS methylation kinetics assay (Michaelis-Menten, steady state); type: biochemical, human; conditions: other: 200 nM SETD3, 3.125-150 µM peptide, 100 µM SAM, 25 mM Tris, 20 mM NaCl, pH 9.0, 37 °C, duplicate, mean ± SE
Description: as §1, §2, §3

CC[C@H](C)[C@H](NC(=O)[C@@H]1CCCN1C(=O)[C@H](Cc1ccc(O)cc1)NC(=O)[C@H](CCCCN)NC(=O)[C@H](CC(C)C)NC(=O)[C@@H](N)[C@@H](C)O)C(=O)N[C@H]1CCC(=O)NCCCC[C@@H](C(=O)N[C@H](C(=O)N[C@H](C(=O)N[C@@H](CC(N)=O)C(=O)N[C@@H](Cc2c[nH]c3ccccc23)C(=O)N[C@@H](CC(=O)O)C(=O)N[C@@H](CC(=O)O)C(N)=O)[C@@H](C)O)C(C)C)NC(=O)CNC(=O)[C@H](Cc2c[nH]cn2)NC1=O [compound 9] (H-TLKYPIEHGKVTNWDD-NH2; lactam 7-10)
SETD3-catalyzed methylation after 3 h [1]: 25%

TLKYPICHGCVTNWDD (also: sidechain bridge or staple (positions not given here)) [compound 2, stapled bis-thiol alkylated βA peptide]
SETD3-catalyzed methylation after 3 h [1]: 30%

TLKYPICHGCVTNWDD (also: sidechain bridge or staple (positions not given here)) [compound 3, stapled bis-thiol alkylated βA peptide]
SETD3-catalyzed methylation after 3 h [1]: 35%

TLKYPICHGCVTNWDD (also: sidechain bridge or staple (positions not given here)) [compound 4, βA peptide stapled with hexafluorobenzene]
SETD3-catalyzed methylation after 3 h (in words) [1]: inert to methylation

TLKYPICHGCVTNWDD [compound 1, linear dicysteine βA66-81 control peptide]
SETD3-catalyzed methylation (conversion) within 1 h [1]: full conversion
Km [2]: 75.7 ± 20 µM
kcat [2]: 0.983 ± 0.125 s⁻¹
kcat/Km [2]: 13000 M⁻¹ s⁻¹

TLKYPIEHG[Orn]VTNWDD (also: sidechain bridge or staple (positions not given here)) [compound 7, i, i + 3 lactam-bridged βA peptide (Glu72-Orn75)]
SETD3-catalyzed methylation after 3 h [1]: 41%

TLKYPIEHG[Orn]VTNWDD [compound 6, linear lactam control, βA-I75 substituted by Orn]
SETD3-catalyzed methylation (conversion) within 1 h [1]: completely methylated
Km [2]: 45.2 ± 8.1 µM
kcat [2]: 3.68 ± 0.267 s⁻¹
kcat/Km [2]: 81800 M⁻¹ s⁻¹

TLKYPILys(N3)HGPraVTNWDD (sidechain bridge or staple) [compound 11, triazole-stapled βA peptide from azide-alkyne cycloaddition of 10]
SETD3-catalyzed methylation after 3 h [1]: 14%

TLKYPILys(N3)HGPraVTNWDD [compound 10, linear click-control with azido-lysine and propargylglycine]
SETD3-catalyzed methylation after 3 h (in words) [1]: full conversion
Km [2]: 77.8 ± 14 µM
kcat [2]: 1.72 ± 0.15 s⁻¹
kcat/Km [2]: 22000 M⁻¹ s⁻¹

linear βA peptide 6 (Ile75 replaced by ornithine) (from UniProt P60709 66-81)
Km of SETD3-catalysed methylation, MALDI-TOF MS steady-state kinetics (200 nM SETD3, 100 µM SAM, pH 9.0, 37 °C) [3]: 45.2 µM
kcat of SETD3-catalysed methylation, MALDI-TOF MS steady-state kinetics (200 nM SETD3, 100 µM SAM, pH 9.0, 37 °C) [3]: 221 min^-1
kcat/Km of SETD3-catalysed methylation, MALDI-TOF MS steady-state kinetics (200 nM SETD3, 100 µM SAM, pH 9.0, 37 °C) [3]: 4.91 µM^-1min^-1

linear βA peptide 8 (I75K) (from UniProt P60709 66-81)
Km of SETD3-catalysed methylation, MALDI-TOF MS steady-state kinetics (200 nM SETD3, 100 µM SAM, pH 9.0, 37 °C) [4]: 25.1 µM
kcat of SETD3-catalysed methylation, MALDI-TOF MS steady-state kinetics (200 nM SETD3, 100 µM SAM, pH 9.0, 37 °C) [4]: 246 min^-1
kcat/Km of SETD3-catalysed methylation, MALDI-TOF MS steady-state kinetics (200 nM SETD3, 100 µM SAM, pH 9.0, 37 °C) [4]: 9.8 µM^-1min^-1

B1: human SETD3 (Homo sapiens) (protein)
chain: T1 sequence (Q86TU7 1-594)
notes: His6 (N); made in house; host or cells: E. coli BL21(DE3)
Km [5]: 25.6 ± 4.9 µM
kcat [5]: 2.47 ± 0.145 s⁻¹
kcat/Km [5]: 96300 M⁻¹ s⁻¹
